One experiment concerns the target T1, PTPN1 (i.e., PTP1B) (Homo sapiens, UniProt P18031).
T1 sequence (P18031 1-435): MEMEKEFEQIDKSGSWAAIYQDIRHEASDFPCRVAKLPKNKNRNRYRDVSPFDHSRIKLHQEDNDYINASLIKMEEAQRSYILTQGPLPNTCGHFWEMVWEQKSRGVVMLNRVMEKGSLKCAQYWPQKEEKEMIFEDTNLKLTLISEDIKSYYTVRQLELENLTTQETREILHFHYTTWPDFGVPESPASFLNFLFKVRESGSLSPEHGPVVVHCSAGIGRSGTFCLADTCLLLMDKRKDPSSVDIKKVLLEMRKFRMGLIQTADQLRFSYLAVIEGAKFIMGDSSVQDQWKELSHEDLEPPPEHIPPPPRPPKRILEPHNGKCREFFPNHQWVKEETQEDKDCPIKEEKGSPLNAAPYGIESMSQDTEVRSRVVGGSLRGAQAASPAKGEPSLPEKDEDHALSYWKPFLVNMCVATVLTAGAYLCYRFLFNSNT
The experiment is described as follows: Phosphatase activity assay (DiFMUP substrate), PTP1B. It is filed as biochemical. As to conditions: compounds binned ≤1 uM or >1 uM. The procedure, abridged:
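Read-out is continuous fluorescence of DiFMU (360 nm excitation, 450 nm emission) over about 15-30 minutes, with DiFMUP substrate at the enzyme's independently determined Km (PTPN2 approx. 45 μM final). Buffer: 50 mM HEPES pH 7.5, 150 mM NaCl, 0.5 mM EDTA, 1 mM DTT, 0.001% Tween-20, room temperature; initial rates versus 10-point dilution fitted for IC50, at least duplicate.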

A further experiment addresses T2, PTPN2 (i.e., TC-PTP) (Homo sapiens, UniProt P17706).
T2 sequence (P17706 1-415): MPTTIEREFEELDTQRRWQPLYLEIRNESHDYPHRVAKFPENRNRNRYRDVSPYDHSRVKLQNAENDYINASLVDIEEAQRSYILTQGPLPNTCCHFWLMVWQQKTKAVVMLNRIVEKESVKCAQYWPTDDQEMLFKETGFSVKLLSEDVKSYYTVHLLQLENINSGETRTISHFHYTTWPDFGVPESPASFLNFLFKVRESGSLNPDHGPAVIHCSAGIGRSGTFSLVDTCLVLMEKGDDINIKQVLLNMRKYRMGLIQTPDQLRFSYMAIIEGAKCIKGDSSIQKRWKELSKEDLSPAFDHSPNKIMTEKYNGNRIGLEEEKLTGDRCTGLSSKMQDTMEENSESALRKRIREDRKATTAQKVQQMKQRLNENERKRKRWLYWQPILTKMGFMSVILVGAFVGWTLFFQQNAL
In words: Phosphatase activity assay (DiFMUP substrate), PTPN2. It is filed as biochemical. As to conditions: compounds binned ≤1 uM or >1 uM. Summed up: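 First, serially diluted inhibitor is mixed about 2 minutes with enzyme in pH 7.5 HEPES/NaCl/EDTA/DTT/Tween-20 buffer. Next, DiFMUP is added at the enzyme's Km, approximately 45 μM for PTPN2. Finally, DiFMU appearance is read continuously at room temperature and rates are fitted for IC50.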

Take `CN1CC(n2cc(-c3ccc(O)c(N4CC(=O)NS4(=O)=O)c3F)cn2)C1` [Compound 310, 5-(2-fluoro-6-hydroxy-3-(1-(1-methylazetidin-3-yl)-1H-pyrazol-4-yl)phenyl)-1,2,5-thiadiazolidin-3-one 1,1-dioxide]: the IC50 on PTPN1 (i.e., PTP1B) was no more than 1000 nM; on PTPN2 (i.e., TC-PTP) it was no more than 1000 nM.

As to `CN(C)c1cc(-c2ccc(O)c(N3CC(=O)NS3(=O)=O)c2F)[nH]n1` [Compound 300, 5-(3-(3-(dimethylamino)-1H-pyrazol-5-yl)-2-fluoro-6-hydroxyphenyl)-1,2,5-thiadiazolidin-3-one 1,1-dioxide], the IC50 is no more than 1000 nM on PTPN1 (i.e., PTP1B) and no more than 1000 nM on PTPN2 (i.e., TC-PTP).

With `O=C1CN(c2c(O)ccc(-c3cc(N4CCC(O)C4)n[nH]3)c2F)S(=O)(=O)N1` (centres unmarked) [Compound 448, 5-(2-fluoro-6-hydroxy-3-(3-(3-hydroxypyrrolidin-1-yl)-1H-pyrazol-5-yl)phenyl)-1,2,5-thiadiazolidin-3-one 1,1-dioxide], the IC50 at PTPN1 (i.e., PTP1B) is no more than 1000 nM; on PTPN2 (i.e., TC-PTP) it was no more than 1000 nM.

Take `NC1CC=C(c2ccc(O)c(N3CC(=O)NS3(=O)=O)c2F)C1` (centres unmarked) [Compound 330, 5-(3-(4-aminocyclopent-1-en-1-yl)-2-fluoro-6-hydroxyphenyl)-1,2,5-thiadiazolidin-3-one 1,1-dioxide]: the IC50 at PTPN1 (i.e., PTP1B) is no more than 1000 nM; at PTPN2 (i.e., TC-PTP) it was no more than 1000 nM.

As to `Cn1ncc2cc(-c3ccc(O)c(N4CC(=O)NS4(=O)=O)c3F)ccc21` [Compound 112, 5-(2-fluoro-6-hydroxy-3-(1-methyl-1H-indazol-5-yl)phenyl)-1,2,5-thiadiazolidin-3-one 1,1-dioxide], the IC50 at PTPN1 (i.e., PTP1B) is no more than 1000 nM; at PTPN2 (i.e., TC-PTP), no more than 1000 nM.

Turning to `N#CCc1cc(-c2ccc(O)c(N3CC(=O)NS3(=O)=O)c2F)[nH]n1` [Compound 365, 2-(5-(3-(1,1-dioxido-4-oxo-1,2,5-thiadiazolidin-2-yl)-2-fluoro-4-hydroxyphenyl)-1H-pyrazol-3-yl)acetonitrile], the IC50 at PTPN1 (i.e., PTP1B) is no more than 1000 nM; at PTPN2 (i.e., TC-PTP) it was no more than 1000 nM.

With `Cc1nc(-c2ccc(O)c(N3CC(=O)NS3(=O)=O)c2F)cn1C` [Compound 199, 5-(3-(1,2-dimethyl-1H-imidazol-4-yl)-2-fluoro-6-hydroxyphenyl)-1,2,5-thiadiazolidin-3-one 1,1-dioxide], the IC50 at PTPN1 (i.e., PTP1B) is no more than 1000 nM; at PTPN2 (i.e., TC-PTP) it was no more than 1000 nM.

As for `O=C1CN(c2c(O)ccc(-c3cc(C4CC4)n(CC4CC4)n3)c2F)S(=O)(=O)N1` [Compound 409, 5-(3-(5-cyclopropyl-1-(cyclopropylmethyl)-1H-pyrazol-3-yl)-2-fluoro-6-hydroxyphenyl)-1,2,5-thiadiazolidin-3-one 1,1-dioxide], the IC50 on PTPN1 (i.e., PTP1B) is no more than 1000 nM; on PTPN2 (i.e., TC-PTP), no more than 1000 nM.

`O=C1CN(c2c(O)ccc(-c3cn(C4CCCC4)cn3)c2F)S(=O)(=O)N1` [Compound 302, 5-(3-(1-cyclopentyl-1H-imidazol-4-yl)-2-fluoro-6-hydroxyphenyl)-1,2,5-thiadiazolidin-3-one 1,1-dioxide]: the IC50 is no more than 1000 nM on PTPN1 (i.e., PTP1B) and no more than 1000 nM on PTPN2 (i.e., TC-PTP).

With `CN(C)C(=O)n1cc(-c2ccc(O)c(N3CC(=O)NS3(=O)=O)c2F)cn1` [Compound 532, 4-(3-(1,1-dioxido-4-oxo-1,2,5-thiadiazolidin-2-yl)-2-fluoro-4-hydroxyphenyl)-N,N-dimethyl-1H-pyrazole-1-carboxamide], the IC50 on PTPN1 (i.e., PTP1B) is no more than 1000 nM; at PTPN2 (i.e., TC-PTP) it was no more than 1000 nM.

Take `O=C1CN(c2c(O)ccc(-c3ccc(NS(=O)(=O)C4CCC4)cc3)c2F)S(=O)(=O)N1` [Compound 335, N-(3′-(1,1-dioxido-4-oxo-1,2,5-thiadiazolidin-2-yl)-2′-fluoro-4′-hydroxy-[1,1′-biphenyl]-4-yl)cyclobutanesulfonamide]: the IC50 at PTPN1 (i.e., PTP1B) was no more than 1000 nM; at PTPN2 (i.e., TC-PTP) it was no more than 1000 nM.

As to `N#Cc1cc(Cn2cc(-c3ccc(O)c(N4CC(=O)NS4(=O)=O)c3F)cn2)ccc1F` [Compound 169, 5-((4-(3-(1,1-dioxido-4-oxo-1,2,5-thiadiazolidin-2-yl)-2-fluoro-4-hydroxyphenyl)-1H-pyrazol-1-yl)methyl)-2-fluorobenzonitrile], the IC50 at PTPN1 (i.e., PTP1B) is no more than 1000 nM; at PTPN2 (i.e., TC-PTP), no more than 1000 nM.

With `CCCN1CCCC(c2ccc(O)c(N3CC(=O)NS3(=O)=O)c2F)C1` (centres unmarked) [Compound 276, 5-(2-fluoro-6-hydroxy-3-(1-propylpiperidin-3-yl)phenyl)-1,2,5-thiadiazolidin-3-one 1,1-dioxide], the half-maximal inhibitory concentration (IC50) at PTPN1 (i.e., PTP1B) was no more than 1000 nM; at PTPN2 (i.e., TC-PTP), greater than 1000 nM.

`N#CCCn1cc(-c2ccc(O)c(N3CC(=O)NS3(=O)=O)c2F)cn1` [Compound 204, 3-(4-(3-(1,1-dioxido-4-oxo-1,2,5-thiadiazolidin-2-yl)-2-fluoro-4-hydroxyphenyl)-1H-pyrazol-1-yl)propanenitrile]: the IC50 was no more than 1000 nM on PTPN1 (i.e., PTP1B) and no more than 1000 nM at PTPN2 (i.e., TC-PTP).

With `O=C1CN(c2c(Cl)ccc(-c3cc(C4CC4)n[nH]3)c2F)S(=O)(=O)N1` [Compound 487, 5-(6-chloro-3-(3-cyclopropyl-1H-pyrazol-5-yl)-2-fluorophenyl)-1,2,5-thiadiazolidin-3-one 1,1-dioxide], the IC50 was no more than 1000 nM on PTPN1 (i.e., PTP1B) and greater than 1000 nM on PTPN2 (i.e., TC-PTP).

As to `CN1CCc2cc(-c3ccc(O)c(N4CC(=O)NS4(=O)=O)c3F)ccc2C1` [Compound 109, 5-(2-fluoro-6-hydroxy-3-(2-methyl-1,2,3,4-tetrahydroisoquinolin-6-yl)phenyl)-1,2,5-thiadiazolidin-3-one 1,1-dioxide], the half-inhibitory concentration (IC50) is no more than 1000 nM on PTPN1 (i.e., PTP1B) and no more than 1000 nM at PTPN2 (i.e., TC-PTP).

`O=C1CN(c2c(O)ccc(-c3cc(N4CCC5(CCC5)C4)n[nH]3)c2F)S(=O)(=O)N1` [Compound 248, 5-(3-(3-(6-azaspiro[3.4]octan-6-yl)-1H-pyrazol-5-yl)-2-fluoro-6-hydroxyphenyl)-1,2,5-thiadiazolidin-3-one 1,1-dioxide]: the half-inhibitory concentration (IC50) at PTPN1 (i.e., PTP1B) was no more than 1000 nM; on PTPN2 (i.e., TC-PTP), no more than 1000 nM.

Take `O=C1CN(c2c(O)ccc(-c3cn(-c4cccc(C(F)(F)F)c4)cn3)c2F)S(=O)(=O)N1` [Compound 325, 5-(2-fluoro-6-hydroxy-3-(1-(3-(trifluoromethyl)phenyl)-1H-imidazol-4-yl)phenyl)-1,2,5-thiadiazolidin-3-one 1,1-dioxide]: the IC50 was no more than 1000 nM at PTPN1 (i.e., PTP1B) and no more than 1000 nM at PTPN2 (i.e., TC-PTP).

For the molecule `O=C1CN(c2c(O)ccc(-c3cc(C4CCC4)n[nH]3)c2F)S(=O)(=O)N1` [Compound 281, 5-(3-(3-cyclobutyl-1H-pyrazol-5-yl)-2-fluoro-6-hydroxyphenyl)-1,2,5-thiadiazolidin-3-one 1,1-dioxide], the IC50 was no more than 1000 nM at PTPN1 (i.e., PTP1B) and no more than 1000 nM on PTPN2 (i.e., TC-PTP).

For the molecule `Cc1ccc(-c2ccc(O)c(N3CC(=O)NS3(=O)=O)c2F)o1` [Compound 126, 5-(2-fluoro-6-hydroxy-3-(5-methylfuran-2-yl)phenyl)-1,2,5-thiadiazolidin-3-one 1,1-dioxide], the IC50 at PTPN1 (i.e., PTP1B) is no more than 1000 nM; on PTPN2 (i.e., TC-PTP), no more than 1000 nM.

As to `CC1CC=C(c2ccc(O)c(N3CC(=O)NS3(=O)=O)c2F)CN1` (centres unmarked) [Compound 470, 5-(2-fluoro-6-hydroxy-3-(6-methyl-1,2,5,6-tetrahydropyridin-3-yl)phenyl)-1,2,5-thiadiazolidin-3-one 1,1-dioxide], the 50% inhibitory concentration (IC50) on PTPN1 (i.e., PTP1B) was no more than 1000 nM; at PTPN2 (i.e., TC-PTP), no more than 1000 nM.

Regarding `O=C1CN(c2c(O)ccc(C3=CCCN(C4CC4)C3)c2F)S(=O)(=O)N1` [Compound 378, 5-(3-(1-cyclopropyl-1,2,5,6-tetrahydropyridin-3-yl)-2-fluoro-6-hydroxyphenyl)-1,2,5-thiadiazolidin-3-one 1,1-dioxide], the IC50 on PTPN1 (i.e., PTP1B) was no more than 1000 nM; on PTPN2 (i.e., TC-PTP), no more than 1000 nM.

With `O=C1CN(c2c(O)ccc(-c3cnn(Cc4cccnc4)c3)c2F)S(=O)(=O)N1` [Compound 187, 5-(2-fluoro-6-hydroxy-3-(1-(pyridin-3-ylmethyl)-1H-pyrazol-4-yl)phenyl)-1,2,5-thiadiazolidin-3-one 1,1-dioxide], the IC50 was no more than 1000 nM on PTPN1 (i.e., PTP1B) and no more than 1000 nM on PTPN2 (i.e., TC-PTP).

In the case of `CC(C)CCNC1CCCN(c2cc(O)c(N3CC(=O)NS3(=O)=O)c(F)c2)C1` (centres unmarked) [Compound 104, 5-(2-fluoro-6-hydroxy-4-(3-(isopentylamino)piperidin-1-yl)phenyl)-1,2,5-thiadiazolidin-3-one 1,1-dioxide], the IC50 on PTPN1 (i.e., PTP1B) is no more than 1000 nM; on PTPN2 (i.e., TC-PTP), no more than 1000 nM.

Regarding `COC(=O)n1nc(C2CC2)cc1-c1ccc(O)c(N2CC(=O)NS2(=O)=O)c1F` [Compound 545, methyl 3-cyclopropyl-5-(3-(1,1-dioxido-4-oxo-1,2,5-thiadiazolidin-2-yl)-2-fluoro-4-hydroxyphenyl)-1H-pyrazole-1-carboxylate], the IC50 on PTPN1 (i.e., PTP1B) is no more than 1000 nM; at PTPN2 (i.e., TC-PTP) it was no more than 1000 nM.

(Values after patent US20240398828A1, “HETERO-ATOM CONTAINING COMPOUNDS AND USES THEREOF” (Kumquat Biosciences Inc., priority 2021, published 2024).)
